Tests used:
Experiment in all cases: KINOMEscan (ScanMAX) kinase profiling
Type in all cases: binding
[1] = biological target: T1, panel of 468 kinases (Homo sapiens, UniProt O00750); settings: PIK3C2B; 1 μM; read-out: % control
T1 construct: purchased KINOMEscan (ScanMAX) service

[2] = biological target: T2, panel of 468 kinases (Homo sapiens, UniProt P15056); settings: BRAF; 1 μM; read-out: % control
T2 construct: purchased KINOMEscan (ScanMAX) service

[3] = biological target: T3, panel of 468 kinases (Homo sapiens, UniProt P35590); settings: TIE1; 1 μM; read-out: % control
T3 construct: purchased KINOMEscan (ScanMAX) service

[4] = biological target: T4, panel of 468 kinases (Homo sapiens, UniProt P35916); settings: FLT4; 1 μM; read-out: % control
T4 construct: purchased KINOMEscan (ScanMAX) service

[5] = biological target: T5, panel of 468 kinases (Homo sapiens, UniProt P51813); settings: BMX; 1 μM; read-out: % control
T5 construct: purchased KINOMEscan (ScanMAX) service
T5 sequence (P51813 1-675): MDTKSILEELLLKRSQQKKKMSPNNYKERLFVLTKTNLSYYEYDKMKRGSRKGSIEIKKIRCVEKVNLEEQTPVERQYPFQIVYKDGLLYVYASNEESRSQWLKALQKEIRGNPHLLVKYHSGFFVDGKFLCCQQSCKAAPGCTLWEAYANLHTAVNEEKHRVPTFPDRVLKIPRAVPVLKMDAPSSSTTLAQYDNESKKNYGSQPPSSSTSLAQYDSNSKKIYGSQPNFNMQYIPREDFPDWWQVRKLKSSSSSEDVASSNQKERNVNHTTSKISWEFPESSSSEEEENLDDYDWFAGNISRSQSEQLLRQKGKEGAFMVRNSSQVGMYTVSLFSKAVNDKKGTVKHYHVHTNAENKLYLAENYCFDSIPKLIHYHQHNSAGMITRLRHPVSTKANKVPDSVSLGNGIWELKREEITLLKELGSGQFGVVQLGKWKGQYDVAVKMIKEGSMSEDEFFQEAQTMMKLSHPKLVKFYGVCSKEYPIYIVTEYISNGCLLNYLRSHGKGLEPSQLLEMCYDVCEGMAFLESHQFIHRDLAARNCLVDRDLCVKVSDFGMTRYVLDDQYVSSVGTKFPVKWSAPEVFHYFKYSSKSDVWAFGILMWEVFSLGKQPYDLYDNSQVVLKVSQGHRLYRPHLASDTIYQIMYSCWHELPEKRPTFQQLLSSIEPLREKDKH

[6] = biological target: T6, panel of 468 kinases (Homo sapiens, UniProt P53667); settings: LIMK1; 1 μM; read-out: % control
T6 construct: purchased KINOMEscan (ScanMAX) service
T6 sequence (P53667 whole entry): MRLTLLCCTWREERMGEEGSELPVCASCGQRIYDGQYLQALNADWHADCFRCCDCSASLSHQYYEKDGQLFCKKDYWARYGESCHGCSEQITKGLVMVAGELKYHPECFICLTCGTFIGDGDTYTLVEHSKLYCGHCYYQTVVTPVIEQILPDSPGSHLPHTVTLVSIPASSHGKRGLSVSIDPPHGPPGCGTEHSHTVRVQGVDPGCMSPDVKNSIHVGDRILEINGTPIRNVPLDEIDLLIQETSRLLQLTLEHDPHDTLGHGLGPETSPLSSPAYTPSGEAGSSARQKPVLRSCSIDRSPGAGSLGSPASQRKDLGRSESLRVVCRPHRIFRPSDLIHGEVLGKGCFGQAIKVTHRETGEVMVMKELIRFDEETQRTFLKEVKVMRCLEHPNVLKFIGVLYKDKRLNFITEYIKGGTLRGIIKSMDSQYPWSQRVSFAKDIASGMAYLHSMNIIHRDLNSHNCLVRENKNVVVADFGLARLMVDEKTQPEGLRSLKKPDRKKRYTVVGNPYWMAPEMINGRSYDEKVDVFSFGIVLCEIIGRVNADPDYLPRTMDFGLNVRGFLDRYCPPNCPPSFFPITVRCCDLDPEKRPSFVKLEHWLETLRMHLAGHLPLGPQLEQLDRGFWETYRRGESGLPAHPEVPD

[7] = biological target: T7, panel of 468 kinases (Homo sapiens, UniProt Q05655); settings: PRKCD; 1 μM; read-out: % control
T7 construct: purchased KINOMEscan (ScanMAX) service
T7 sequence (Q05655 whole entry): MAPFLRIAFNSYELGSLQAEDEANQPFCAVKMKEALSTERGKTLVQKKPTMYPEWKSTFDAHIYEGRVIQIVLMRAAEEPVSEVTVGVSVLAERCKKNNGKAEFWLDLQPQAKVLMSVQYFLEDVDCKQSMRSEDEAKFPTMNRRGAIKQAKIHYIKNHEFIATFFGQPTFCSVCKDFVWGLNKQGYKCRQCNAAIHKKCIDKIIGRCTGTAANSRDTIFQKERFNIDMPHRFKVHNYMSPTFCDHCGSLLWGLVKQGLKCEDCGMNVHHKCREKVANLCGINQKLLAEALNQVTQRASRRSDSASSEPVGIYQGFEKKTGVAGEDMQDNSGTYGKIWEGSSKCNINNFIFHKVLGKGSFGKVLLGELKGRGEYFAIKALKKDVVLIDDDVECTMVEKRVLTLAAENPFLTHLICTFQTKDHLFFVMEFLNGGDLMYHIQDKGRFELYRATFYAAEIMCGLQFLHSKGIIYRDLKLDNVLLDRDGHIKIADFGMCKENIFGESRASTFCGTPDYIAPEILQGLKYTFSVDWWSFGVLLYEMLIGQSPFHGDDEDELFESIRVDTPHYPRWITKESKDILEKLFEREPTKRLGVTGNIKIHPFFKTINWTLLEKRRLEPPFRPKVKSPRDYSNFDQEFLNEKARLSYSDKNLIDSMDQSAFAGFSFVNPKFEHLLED

[8] = biological target: T8, panel of 468 kinases (Homo sapiens, UniProt Q6PHR2); settings: ULK3; 1 μM; read-out: % control
T8 construct: purchased KINOMEscan (ScanMAX) service
T8 sequence (Q6PHR2 1-472): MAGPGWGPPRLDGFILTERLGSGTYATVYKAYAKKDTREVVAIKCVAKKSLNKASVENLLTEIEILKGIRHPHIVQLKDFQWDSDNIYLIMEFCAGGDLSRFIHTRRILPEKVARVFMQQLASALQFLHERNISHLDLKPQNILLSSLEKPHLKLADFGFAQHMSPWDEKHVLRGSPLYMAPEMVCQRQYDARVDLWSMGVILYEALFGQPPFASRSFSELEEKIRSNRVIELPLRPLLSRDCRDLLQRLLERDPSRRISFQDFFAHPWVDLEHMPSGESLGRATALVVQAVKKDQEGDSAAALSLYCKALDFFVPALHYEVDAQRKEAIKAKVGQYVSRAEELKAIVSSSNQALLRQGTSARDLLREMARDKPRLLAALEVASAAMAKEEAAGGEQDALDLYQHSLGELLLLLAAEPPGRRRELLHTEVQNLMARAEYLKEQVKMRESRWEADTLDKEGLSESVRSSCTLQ

[9] = biological target: T9, panel of 468 kinases (Homo sapiens, UniProt Q99558); settings: NIK; 1 μM; read-out: % control
T9 construct: purchased KINOMEscan (ScanMAX) service
T9 sequence (Q99558 whole entry): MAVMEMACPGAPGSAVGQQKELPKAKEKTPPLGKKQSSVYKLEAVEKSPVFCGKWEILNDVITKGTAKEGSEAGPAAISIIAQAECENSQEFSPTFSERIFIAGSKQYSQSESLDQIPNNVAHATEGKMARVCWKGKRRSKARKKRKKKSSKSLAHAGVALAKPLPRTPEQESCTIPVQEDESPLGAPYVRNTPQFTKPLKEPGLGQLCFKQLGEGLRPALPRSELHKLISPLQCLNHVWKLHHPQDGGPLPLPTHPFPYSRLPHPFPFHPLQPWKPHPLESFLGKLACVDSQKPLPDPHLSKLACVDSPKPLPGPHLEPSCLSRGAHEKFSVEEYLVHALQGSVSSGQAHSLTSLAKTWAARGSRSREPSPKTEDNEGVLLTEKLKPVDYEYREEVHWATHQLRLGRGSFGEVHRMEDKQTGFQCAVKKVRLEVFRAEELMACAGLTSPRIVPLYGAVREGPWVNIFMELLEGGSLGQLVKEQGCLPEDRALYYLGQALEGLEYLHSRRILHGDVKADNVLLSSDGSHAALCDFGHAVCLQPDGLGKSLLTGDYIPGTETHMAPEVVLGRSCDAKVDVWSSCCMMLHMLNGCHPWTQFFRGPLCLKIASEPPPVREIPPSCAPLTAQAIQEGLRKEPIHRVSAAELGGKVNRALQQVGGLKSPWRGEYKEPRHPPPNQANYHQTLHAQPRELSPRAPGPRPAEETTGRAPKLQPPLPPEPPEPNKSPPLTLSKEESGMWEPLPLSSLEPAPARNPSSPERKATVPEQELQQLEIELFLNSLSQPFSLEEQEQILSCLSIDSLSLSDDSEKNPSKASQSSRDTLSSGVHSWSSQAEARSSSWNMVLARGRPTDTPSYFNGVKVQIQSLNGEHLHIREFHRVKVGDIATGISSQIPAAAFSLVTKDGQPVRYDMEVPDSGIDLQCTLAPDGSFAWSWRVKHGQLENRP

[10] = biological target: T10, panel of 468 kinases (Homo sapiens, UniProt Q9Y2K2); settings: QSK; 1 μM; read-out: % control
T10 construct: purchased KINOMEscan (ScanMAX) service

[11] = biological target: T11, panel of 468 kinases (Homo sapiens, UniProt Q9Y5S2); settings: MRCKB; 1 μM; read-out: % control
T11 construct: purchased KINOMEscan (ScanMAX) service

T1 sequence (O00750 whole entry): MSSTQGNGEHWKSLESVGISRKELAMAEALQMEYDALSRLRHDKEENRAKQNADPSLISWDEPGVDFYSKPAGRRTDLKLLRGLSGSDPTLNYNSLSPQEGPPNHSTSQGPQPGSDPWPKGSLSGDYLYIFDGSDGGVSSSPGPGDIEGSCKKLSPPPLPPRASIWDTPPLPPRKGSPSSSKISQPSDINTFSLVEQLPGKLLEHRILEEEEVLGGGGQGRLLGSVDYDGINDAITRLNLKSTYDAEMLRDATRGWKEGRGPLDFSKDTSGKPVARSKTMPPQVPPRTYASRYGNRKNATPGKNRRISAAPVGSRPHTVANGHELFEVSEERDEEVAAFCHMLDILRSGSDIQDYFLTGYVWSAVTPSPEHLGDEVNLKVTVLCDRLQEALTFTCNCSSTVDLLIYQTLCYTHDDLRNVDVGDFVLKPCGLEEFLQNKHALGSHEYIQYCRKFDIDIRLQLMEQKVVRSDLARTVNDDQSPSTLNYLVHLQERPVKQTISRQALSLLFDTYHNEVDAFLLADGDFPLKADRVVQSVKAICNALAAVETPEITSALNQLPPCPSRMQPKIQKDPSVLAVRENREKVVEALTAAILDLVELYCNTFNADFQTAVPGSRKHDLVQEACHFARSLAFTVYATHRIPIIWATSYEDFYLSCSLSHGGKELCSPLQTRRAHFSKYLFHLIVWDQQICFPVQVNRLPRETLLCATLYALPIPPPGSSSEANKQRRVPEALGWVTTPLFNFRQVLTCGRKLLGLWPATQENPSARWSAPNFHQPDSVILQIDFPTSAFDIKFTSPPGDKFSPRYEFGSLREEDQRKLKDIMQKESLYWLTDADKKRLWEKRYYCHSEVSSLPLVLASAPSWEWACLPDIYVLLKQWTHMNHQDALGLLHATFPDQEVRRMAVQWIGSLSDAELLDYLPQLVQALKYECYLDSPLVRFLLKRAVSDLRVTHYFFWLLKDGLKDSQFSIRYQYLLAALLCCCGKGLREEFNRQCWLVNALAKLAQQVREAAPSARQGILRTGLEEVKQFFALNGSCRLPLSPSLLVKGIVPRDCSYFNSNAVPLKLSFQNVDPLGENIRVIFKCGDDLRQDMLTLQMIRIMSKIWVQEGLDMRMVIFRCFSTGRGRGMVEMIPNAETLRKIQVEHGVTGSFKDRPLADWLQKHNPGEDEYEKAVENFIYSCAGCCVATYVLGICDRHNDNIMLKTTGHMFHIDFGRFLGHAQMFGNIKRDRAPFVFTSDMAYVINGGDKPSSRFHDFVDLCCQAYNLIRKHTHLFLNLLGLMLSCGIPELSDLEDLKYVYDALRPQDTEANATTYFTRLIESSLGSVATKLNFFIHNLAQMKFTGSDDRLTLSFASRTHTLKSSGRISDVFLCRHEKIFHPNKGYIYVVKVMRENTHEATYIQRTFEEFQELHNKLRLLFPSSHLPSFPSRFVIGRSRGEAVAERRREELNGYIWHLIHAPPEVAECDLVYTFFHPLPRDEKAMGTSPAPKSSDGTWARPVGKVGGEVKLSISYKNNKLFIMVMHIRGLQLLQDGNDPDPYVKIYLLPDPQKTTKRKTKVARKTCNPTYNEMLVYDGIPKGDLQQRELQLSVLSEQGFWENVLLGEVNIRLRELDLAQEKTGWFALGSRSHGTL
T2 sequence (P15056 whole entry): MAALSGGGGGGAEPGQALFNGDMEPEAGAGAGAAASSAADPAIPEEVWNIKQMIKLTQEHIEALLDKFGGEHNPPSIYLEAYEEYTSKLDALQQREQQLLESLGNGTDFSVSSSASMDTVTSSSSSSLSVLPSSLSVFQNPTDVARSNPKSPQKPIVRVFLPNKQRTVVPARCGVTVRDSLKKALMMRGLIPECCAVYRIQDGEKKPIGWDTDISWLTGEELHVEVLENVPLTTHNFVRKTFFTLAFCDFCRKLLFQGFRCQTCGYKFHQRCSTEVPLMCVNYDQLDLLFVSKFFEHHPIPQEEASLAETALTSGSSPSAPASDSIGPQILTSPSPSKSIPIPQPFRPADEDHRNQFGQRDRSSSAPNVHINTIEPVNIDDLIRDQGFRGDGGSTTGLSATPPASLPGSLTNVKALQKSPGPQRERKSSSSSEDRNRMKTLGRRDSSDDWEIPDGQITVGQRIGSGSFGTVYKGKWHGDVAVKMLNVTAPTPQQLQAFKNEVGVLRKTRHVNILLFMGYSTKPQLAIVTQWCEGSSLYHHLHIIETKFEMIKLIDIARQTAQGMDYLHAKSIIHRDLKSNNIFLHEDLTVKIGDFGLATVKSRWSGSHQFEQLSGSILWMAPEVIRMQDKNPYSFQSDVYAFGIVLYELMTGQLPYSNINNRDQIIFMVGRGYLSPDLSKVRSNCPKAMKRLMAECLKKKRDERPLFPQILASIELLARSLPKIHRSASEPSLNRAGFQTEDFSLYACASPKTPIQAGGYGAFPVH

SMILES | remaining binding at 1 µM [1] [%] | remaining binding at 1 µM [2] [%] | remaining binding at 1 µM [3] [%] | remaining binding at 1 µM [4] [%] | remaining binding at 1 µM [5] [%] | remaining binding at 1 µM [6] [%] | remaining binding at 1 µM [7] [%] | remaining binding at 1 µM [8] [%] | remaining binding at 1 µM [9] [%] | remaining binding at 1 µM [10] [%] | remaining binding at 1 µM [11] [%]
CNc1nc(Nc2ccc(C(=O)N3CCC(N4CCOCC4)CC3)c3c2OCO3)nc2[nH]cc(Cl)c12 [Compound 75, (7-((5-chloro-4-(methylamino)-7H-pyrrolo[2,3-d]pyrimidin-2-yl)amino)benzo[d][1,3]dioxol-4-yl)(4-morpholinopiperidin-1-yl)methanone] | 100 | 100 | 100 | 100 | 97 | 100 | 89 | 7.6 | 0 | 100 | 100
CNc1nc(Nc2ccc(S(=O)(=O)N3CCC(N4CCOCC4)CC3)cc2OC)nc2[nH]cc(Cl)c12 [Compound 12, 5-chloro-N2-(2-methoxy-4-((4-morpholinopiperidin-1-yl)sulfonyl)phenyl)-N4-methyl-7H-pyrrolo[2,3-d]pyrimidine-2,4-diamine] | 100 | 93 | 100 | 100 | 97 | 100 | 94 | 65 | 9.2 | 100 | 100
CNc1nc(Nc2ccc(P3(=O)CCN(C4CCOCC4)CC3)cc2OC)nc2[nH]cc(Cl)c12 [Compound 77, 4-(4-((5-chloro-4-(methylamino)-7H-pyrrolo[2,3-d]pyrimidin-2-yl)amino)-3-methoxyphenyl)-1-(tetrahydro-2H-pyran-4-yl)-1,4-azaphosphinane 4-oxide] | 96 | 97 | 100 | 100 | 99 | 100 | 95 | 65 | 16 | 100 | 100

Source: patent US12479847B2 (DANA-FARBER CANCER INSTITUTE, INC., priority 2019, dated 2025)
